Paper doi:10.1101/2025.08.01.668199, “Vacuolar Phosphatidylinositol 3,4,5-trisphosphate controls fusion through binding Vam7, and membrane microdomain assembly” (bioRxiv, 2025)

How the values were obtained:
Vam7 = molecular target: T1, Vam7 (Saccharomyces cerevisiae, UniProt P32912); assay: bio-layer interferometry, biotinylated lipid on streptavidin probe; type: binding
T1 construct: GST-Vam7
T1 sequence (P32912 1-316): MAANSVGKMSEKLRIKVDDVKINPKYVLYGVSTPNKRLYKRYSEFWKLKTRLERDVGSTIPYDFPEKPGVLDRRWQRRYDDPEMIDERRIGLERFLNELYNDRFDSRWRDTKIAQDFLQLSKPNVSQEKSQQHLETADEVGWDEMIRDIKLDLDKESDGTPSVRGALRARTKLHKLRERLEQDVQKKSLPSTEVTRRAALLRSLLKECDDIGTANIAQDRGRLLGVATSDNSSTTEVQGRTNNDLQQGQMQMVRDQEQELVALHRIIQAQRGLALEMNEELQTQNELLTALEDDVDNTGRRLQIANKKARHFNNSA

Vam7^Y42A = molecular target: T2, Vam7^Y42A (Saccharomyces cerevisiae, UniProt P32912, Y42A); assay: as above; type: binding
T2 construct: GST-Vam7^Y42A
T2 sequence (P32912 whole entry Y42A): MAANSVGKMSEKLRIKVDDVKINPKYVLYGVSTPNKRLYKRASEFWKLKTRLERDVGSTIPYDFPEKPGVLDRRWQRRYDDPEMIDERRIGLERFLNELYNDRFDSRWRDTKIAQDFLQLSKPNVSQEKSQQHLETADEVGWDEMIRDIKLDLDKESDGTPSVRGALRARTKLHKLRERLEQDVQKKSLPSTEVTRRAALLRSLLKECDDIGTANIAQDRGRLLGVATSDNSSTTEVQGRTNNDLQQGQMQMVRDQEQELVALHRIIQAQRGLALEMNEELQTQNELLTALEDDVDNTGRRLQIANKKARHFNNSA

Row | Substance | Kd (Vam7) | Kd (Vam7^Y42A)
1 | PI3P | ~200 nM | –
2 | PI(3,4,5)P3 | ~70 nM | ~210 nM
